The target of series [1] is Macrophage metalloelastase (Homo sapiens, UniProt P39900). The series can be described thus: Inhibition of human recombinant MMP12.
The next series concerns the target T1, Interstitial collagenase (Homo sapiens, UniProt P03956).
T1 sequence (P03956 whole entry): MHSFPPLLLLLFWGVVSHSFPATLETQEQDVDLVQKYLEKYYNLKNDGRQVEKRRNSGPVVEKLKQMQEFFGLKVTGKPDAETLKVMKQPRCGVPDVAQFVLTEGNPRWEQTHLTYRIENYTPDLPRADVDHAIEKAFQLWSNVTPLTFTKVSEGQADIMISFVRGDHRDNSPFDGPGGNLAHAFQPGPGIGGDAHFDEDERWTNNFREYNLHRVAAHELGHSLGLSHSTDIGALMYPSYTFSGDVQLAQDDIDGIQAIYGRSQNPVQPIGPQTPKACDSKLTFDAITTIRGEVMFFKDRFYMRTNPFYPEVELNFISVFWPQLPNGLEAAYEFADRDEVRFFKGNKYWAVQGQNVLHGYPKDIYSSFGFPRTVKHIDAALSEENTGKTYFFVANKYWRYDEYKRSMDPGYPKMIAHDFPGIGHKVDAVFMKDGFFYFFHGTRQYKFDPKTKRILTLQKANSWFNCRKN
Put plainly: Inhibition of human recombinant MMP1.

The target in the next series is Collagenase 3 (Homo sapiens, UniProt P45452). The series can be described thus: Inhibition of human recombinant MMP13.
In series [2] the target is Disintegrin and metalloproteinase domain-containing protein 17 (Homo sapiens, UniProt P78536). The series can be described thus: Inhibition of human recombinant TACE.
Disintegrin and metalloproteinase domain-containing protein 17, sequence (P78536 whole entry, the tested form may be a part): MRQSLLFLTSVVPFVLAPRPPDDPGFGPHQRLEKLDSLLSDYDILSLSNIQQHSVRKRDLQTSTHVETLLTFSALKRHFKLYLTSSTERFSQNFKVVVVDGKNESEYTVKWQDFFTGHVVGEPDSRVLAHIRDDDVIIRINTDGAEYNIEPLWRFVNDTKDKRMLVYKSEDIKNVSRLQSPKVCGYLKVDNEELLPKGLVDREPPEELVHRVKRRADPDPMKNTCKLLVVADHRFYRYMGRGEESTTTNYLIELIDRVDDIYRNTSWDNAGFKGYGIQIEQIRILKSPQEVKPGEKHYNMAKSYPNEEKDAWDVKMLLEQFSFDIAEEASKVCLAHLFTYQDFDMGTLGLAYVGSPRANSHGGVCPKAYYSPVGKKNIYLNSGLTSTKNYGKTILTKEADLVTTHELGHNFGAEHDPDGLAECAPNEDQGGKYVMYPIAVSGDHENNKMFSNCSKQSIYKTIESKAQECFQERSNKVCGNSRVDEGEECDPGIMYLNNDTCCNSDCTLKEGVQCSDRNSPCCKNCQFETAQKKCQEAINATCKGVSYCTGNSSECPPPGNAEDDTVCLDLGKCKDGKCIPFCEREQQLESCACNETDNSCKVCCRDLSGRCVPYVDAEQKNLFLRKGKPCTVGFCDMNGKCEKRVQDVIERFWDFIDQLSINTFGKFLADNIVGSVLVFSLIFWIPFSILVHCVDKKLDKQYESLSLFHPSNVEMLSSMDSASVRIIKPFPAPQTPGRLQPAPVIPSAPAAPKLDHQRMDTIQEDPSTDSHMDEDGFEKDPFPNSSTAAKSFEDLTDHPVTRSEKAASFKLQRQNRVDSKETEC
The target of series [3] is 72 kDa type IV collagenase (Homo sapiens, UniProt P08253). The series can be described thus: Inhibition of human recombinant MMP2.
72 kDa type IV collagenase, sequence (P08253 whole entry): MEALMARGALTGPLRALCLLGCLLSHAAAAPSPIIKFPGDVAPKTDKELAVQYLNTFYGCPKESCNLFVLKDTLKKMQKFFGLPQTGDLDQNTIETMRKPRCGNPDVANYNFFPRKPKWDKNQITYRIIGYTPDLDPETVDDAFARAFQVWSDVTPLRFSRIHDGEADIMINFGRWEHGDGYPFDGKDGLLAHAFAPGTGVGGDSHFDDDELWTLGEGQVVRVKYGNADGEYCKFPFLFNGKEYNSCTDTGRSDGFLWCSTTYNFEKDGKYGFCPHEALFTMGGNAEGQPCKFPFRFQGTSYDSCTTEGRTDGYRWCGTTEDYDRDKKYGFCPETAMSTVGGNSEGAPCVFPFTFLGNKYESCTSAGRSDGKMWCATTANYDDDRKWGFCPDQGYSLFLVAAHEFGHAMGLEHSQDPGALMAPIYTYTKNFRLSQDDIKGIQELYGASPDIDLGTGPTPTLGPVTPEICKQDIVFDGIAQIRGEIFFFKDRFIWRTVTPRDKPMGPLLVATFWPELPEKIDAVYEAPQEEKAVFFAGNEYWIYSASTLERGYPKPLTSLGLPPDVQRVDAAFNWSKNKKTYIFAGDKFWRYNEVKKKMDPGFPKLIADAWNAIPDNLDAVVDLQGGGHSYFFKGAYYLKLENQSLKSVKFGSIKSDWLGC
Series [4] deals with Matrix metalloproteinase-14 (Homo sapiens, UniProt P50281). The series can be described thus: Inhibition of human recombinant MMP14.
The target of series [5] is Angiotensin-converting enzyme (Homo sapiens, UniProt P12821). Put plainly: Inhibition of human recombinant ACE.
Angiotensin-converting enzyme, sequence (P12821 whole entry): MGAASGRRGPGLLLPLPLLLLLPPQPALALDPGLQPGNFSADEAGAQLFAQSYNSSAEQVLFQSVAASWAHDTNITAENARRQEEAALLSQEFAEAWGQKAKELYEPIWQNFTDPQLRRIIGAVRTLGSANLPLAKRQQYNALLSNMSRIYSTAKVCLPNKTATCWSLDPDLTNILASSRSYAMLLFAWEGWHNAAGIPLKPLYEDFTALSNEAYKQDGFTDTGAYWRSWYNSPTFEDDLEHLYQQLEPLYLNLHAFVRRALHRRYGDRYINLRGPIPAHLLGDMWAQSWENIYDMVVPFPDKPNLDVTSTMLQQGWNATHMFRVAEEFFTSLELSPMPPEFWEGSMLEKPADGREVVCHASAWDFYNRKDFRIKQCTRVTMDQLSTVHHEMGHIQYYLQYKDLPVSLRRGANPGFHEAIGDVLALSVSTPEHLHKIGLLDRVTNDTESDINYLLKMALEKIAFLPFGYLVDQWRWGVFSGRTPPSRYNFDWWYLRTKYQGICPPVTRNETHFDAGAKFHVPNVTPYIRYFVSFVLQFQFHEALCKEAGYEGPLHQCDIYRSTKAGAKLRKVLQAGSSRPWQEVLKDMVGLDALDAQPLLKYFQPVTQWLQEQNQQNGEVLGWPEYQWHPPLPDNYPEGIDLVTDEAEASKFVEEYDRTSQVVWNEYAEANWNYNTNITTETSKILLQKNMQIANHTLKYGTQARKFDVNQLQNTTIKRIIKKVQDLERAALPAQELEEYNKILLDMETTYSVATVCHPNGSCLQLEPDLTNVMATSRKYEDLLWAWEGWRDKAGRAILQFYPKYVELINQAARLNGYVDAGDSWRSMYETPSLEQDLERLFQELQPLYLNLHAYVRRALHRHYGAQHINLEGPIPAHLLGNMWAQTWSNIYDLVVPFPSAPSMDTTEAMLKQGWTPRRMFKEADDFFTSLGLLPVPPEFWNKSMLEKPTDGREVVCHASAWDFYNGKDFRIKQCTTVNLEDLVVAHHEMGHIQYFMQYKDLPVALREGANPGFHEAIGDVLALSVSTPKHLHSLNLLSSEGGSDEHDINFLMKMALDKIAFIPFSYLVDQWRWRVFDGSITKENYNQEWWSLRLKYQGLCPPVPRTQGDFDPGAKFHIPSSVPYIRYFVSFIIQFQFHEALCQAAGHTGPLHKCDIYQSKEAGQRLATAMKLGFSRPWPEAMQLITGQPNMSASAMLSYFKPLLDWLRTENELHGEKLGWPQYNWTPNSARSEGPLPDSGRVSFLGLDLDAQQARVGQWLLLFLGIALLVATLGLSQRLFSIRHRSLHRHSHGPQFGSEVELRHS
A short description of series [6]: Solubility at pH 7.4. The class given is physicochemical. As to conditions: buffer.
Series [7] can be described thus: Solubility at pH 6.2. Format: physicochemical. The note with it: buffer.
Series [8] in a line: Inhibition of guinea pig recombinant MMP12. Set-up: species or system Cavia porcellus.
The target in a further series is T2, Matrilysin (Homo sapiens, UniProt P09237).
T2 sequence (P09237 whole entry): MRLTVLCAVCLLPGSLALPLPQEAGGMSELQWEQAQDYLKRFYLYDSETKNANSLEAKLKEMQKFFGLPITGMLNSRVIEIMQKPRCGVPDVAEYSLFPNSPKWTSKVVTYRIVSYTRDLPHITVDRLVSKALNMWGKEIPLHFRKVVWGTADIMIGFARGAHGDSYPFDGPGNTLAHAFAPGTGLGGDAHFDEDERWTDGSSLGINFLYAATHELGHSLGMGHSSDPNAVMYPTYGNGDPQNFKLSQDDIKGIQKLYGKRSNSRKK
The series can be described thus: Inhibition of human recombinant MMP7.

Series [9] can be described thus: Lipophilicity, log D at pH 6.2. The class given is physicochemical. The note with it: buffer.
Another series deals with Stromelysin-1 (Homo sapiens, UniProt P08254). Put plainly: Inhibition of human recombinant MMP3.
Stromelysin-1, sequence (P08254 whole entry): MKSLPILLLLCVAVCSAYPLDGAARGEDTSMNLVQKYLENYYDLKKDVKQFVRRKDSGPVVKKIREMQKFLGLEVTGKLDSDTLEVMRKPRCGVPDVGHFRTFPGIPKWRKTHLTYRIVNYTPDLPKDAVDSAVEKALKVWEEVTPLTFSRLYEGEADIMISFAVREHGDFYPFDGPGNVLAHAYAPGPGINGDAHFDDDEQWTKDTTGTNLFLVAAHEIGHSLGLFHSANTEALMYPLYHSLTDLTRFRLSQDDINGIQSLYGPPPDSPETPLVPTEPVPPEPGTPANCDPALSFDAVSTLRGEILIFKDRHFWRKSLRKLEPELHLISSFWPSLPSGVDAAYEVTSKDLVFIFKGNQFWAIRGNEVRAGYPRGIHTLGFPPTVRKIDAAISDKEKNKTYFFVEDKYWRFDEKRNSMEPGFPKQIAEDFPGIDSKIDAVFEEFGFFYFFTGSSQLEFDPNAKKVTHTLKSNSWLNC
Series [10] in a line: Lipophilicity, log D at pH 7.4. The class given is physicochemical. As to conditions: buffer.
For series [11], the target named is Matrix metalloproteinase-9 (Homo sapiens, UniProt P14780). The series can be described thus: Inhibition of human recombinant MMP9.
Matrix metalloproteinase-9, sequence (P14780 whole entry): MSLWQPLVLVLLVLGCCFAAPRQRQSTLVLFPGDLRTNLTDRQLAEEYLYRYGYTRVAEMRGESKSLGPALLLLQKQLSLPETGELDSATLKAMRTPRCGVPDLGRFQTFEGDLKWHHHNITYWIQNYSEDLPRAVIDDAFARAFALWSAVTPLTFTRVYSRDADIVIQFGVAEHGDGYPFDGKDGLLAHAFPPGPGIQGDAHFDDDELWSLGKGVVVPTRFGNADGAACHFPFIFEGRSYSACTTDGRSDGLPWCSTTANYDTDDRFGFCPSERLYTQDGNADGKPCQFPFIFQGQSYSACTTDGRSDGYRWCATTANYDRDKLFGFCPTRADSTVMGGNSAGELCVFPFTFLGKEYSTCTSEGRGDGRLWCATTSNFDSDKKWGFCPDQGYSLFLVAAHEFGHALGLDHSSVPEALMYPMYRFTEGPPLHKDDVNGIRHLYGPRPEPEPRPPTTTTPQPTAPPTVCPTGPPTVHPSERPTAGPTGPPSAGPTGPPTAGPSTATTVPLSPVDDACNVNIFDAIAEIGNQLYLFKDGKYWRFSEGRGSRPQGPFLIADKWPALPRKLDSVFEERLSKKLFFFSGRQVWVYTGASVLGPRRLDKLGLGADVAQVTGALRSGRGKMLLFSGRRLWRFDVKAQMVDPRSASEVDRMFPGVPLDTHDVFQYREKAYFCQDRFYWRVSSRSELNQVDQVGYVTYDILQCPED

Each structure is given as a SMILES string. ≈ marks a conversion by molar mass, not a printed value.

Macrophage metalloelastase, sequence (P39900 whole entry): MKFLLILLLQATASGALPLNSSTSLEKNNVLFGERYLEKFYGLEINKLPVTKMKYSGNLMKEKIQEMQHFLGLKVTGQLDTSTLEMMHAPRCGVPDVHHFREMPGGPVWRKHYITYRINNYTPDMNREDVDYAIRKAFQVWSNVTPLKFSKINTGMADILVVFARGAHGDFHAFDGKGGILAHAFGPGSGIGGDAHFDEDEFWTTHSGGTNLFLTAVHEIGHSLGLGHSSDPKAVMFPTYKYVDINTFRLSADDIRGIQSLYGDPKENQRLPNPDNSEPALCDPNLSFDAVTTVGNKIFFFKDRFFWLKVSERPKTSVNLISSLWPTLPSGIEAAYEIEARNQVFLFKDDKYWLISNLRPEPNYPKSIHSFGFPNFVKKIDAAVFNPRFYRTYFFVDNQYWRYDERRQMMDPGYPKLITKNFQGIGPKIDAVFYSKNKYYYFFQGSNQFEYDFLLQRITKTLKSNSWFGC

The IC50 is the concentration at which inhibition is half-maximal. As for `O=C(O)CS(=O)(=O)CCc1ccc(-c2ccccc2)cc1`, the IC50 in [1] was 2.49 µM; at Interstitial collagenase, greater than 98 µM; at Collagenase 3, 11.3 µM.
As for `O=C(O)CC(O)CCc1ccc(-c2ccc(OCc3ccccc3)cc2)cc1` (stereo unspecified), the IC50 is 3.75 µM in series [1], greater than 98 µM on Interstitial collagenase and greater than 98 µM at Collagenase 3.
Consider `O=C(O)C[S+]([O-])CCc1ccc(-c2ccccc2)cc1` (stereo unspecified), for which the values for the IC50 (in series [1]; at Interstitial collagenase; at Collagenase 3) were 4.5 µM, greater than 98 µM and 95.9 µM, respectively.
For `O=C(O)CC(=O)CCc1ccc(-c2ccccc2)cc1`, the IC50 in series [1] was 7.84 µM; on Interstitial collagenase it was greater than 98 µM; at Collagenase 3, greater than 98 µM.
Regarding `O=C(O)CSCCc1ccc(-c2ccccc2)cc1`, the results for the IC50 (in [1]; on Interstitial collagenase; at Collagenase 3) were 11.8 µM, greater than 98 µM and 95.2 µM, respectively.
For the compound `O=C(O)CC(O)CCc1ccc(-c2cc3ccccc3o2)cc1` (stereo unspecified), the IC50 in [1] is 0.181 µM; at Collagenase 3 it was 50.2 µM.
Turning to `CC(=O)OC(CCc1ccc(-c2ccccc2)cc1)CC(=O)O` (stereo unspecified), the IC50 was 54.4 µM in series [1], greater than 98 µM at Interstitial collagenase and greater than 98 µM on Collagenase 3.
`N#Cc1cccc(-c2ccc(CCC(O)CC(=O)O)cc2)c1` (stereo unspecified): the concentration for half-maximal inhibition (IC50) was 3.39 µM in series [1], greater than 98 µM at Interstitial collagenase and 52 µM at Collagenase 3.
With `CSc1ccc(-c2ccc(CCC(O)CC(=O)O)cc2)cc1` (stereo unspecified), the IC50 is 0.058 µM in [1], greater than 98 µM at Interstitial collagenase and 1.13 µM at Collagenase 3.
In the case of `O=C(O)CC(O)CCc1ccc(-c2ccncc2)cc1` (stereo unspecified), the IC50 in [1] worked out at 0.055 µM; at Collagenase 3, 3.76 µM.
For `O=C(O)CC(O)CCc1ccc(-c2ccc3c(c2)oc2ccccc23)cc1` (stereo unspecified), the IC50 in series [1] is 20.1 µM; on Interstitial collagenase it was greater than 98 µM; on Collagenase 3, 33.5 µM.
`O=C(O)CC(O)CCc1ccc(-c2ccc(Oc3ccccc3)cc2)cc1` (stereo unspecified): the IC50 in [1] is 19.9 µM; at Interstitial collagenase, greater than 98 µM; on Collagenase 3, 41.9 µM.
The matching figures for `N#Cc1ccc(-c2ccc(CCC(O)CC(=O)O)cc2)cc1` (stereo unspecified): 0.086 µM, greater than 98 µM and 2.45 µM.
`COC(CCc1ccc(-c2ccccc2)cc1)CC(=O)O` (stereo unspecified): the IC50 in series [1] was 3.53 µM; at Interstitial collagenase, greater than 98 µM; on Collagenase 3 it was greater than 98 µM.
On to `CC(=O)c1ccc(-c2ccc(CCC(O)CC(=O)O)cc2)cc1` (stereo unspecified), for which the results for the IC50 at Interstitial collagenase and at Collagenase 3 were greater than 98 µM and 0.97 µM, respectively.
A word on the solubility: it is the concentration that dissolves in the medium under given conditions. A word on the logD: it is the decadic logarithm of the distribution of all forms, ionised or not, between an organic phase and buffer at a given pH. On to `O=C(O)CC(O)CCc1ccc(-c2ccccc2)cc1` (racemic), for which the IC50 is greater than 98 µM in [2]; 4.52 µM in [3]; 43.5 µM in [4]; greater than 250 µM in [5]; 0.91 µM in series [8]; greater than 98 µM at Matrilysin. The IC50 on Interstitial collagenase was greater than 98 µM; on Collagenase 3, 12 µM; on Stromelysin-1, greater than 98 µM; in series [11] it was 16.5 µM. Besides, the solubility in series [6] came to 960 µg/mL (≈ 3550 µM); in series [7] it was 450 µg/mL (≈ 1660 µM). Besides, the results for the log distribution coefficient (logD) in series [9] and in series [10] were 1.43 and 0.55, respectively.
Regarding `O=C(O)CC(O)CCc1ccc(-c2ccccc2)cc1` (single isomer, unassigned), the IC50 was greater than 98 µM in series [2]; 36.6 µM in [4]; 0.34 µM in series [1]; greater than 250 µM in series [5]; 1.14 µM in series [8]; greater than 98 µM on Matrilysin. For the same compound, the IC50 on Interstitial collagenase is greater than 98 µM; at Collagenase 3 it was 9.99 µM; at Stromelysin-1 it was greater than 98 µM; in series [11], 10.5 µM.
For the compound `O=C(O)CC(O)CCc1ccc(-c2ccccc2)cc1` (stereo in doubt), the IC50 is greater than 98 µM in series [2]; greater than 9 µM in [4]; 0.79 µM in series [1]; greater than 250 µM in [5]; 4.67 µM in series [8]; greater than 98 µM at Matrilysin. Also, the IC50 on Interstitial collagenase is greater than 98 µM; at Collagenase 3, 36.8 µM; on Stromelysin-1 it was greater than 98 µM; in series [11] it was 19.1 µM.

The record behind these values is ChEMBL document CHEMBL1155192, “The identification of beta-hydroxy carboxylic acids as selective MMP-12 inhibitors” (Bioorg Med Chem Lett, 2009).
